We go through three sequences from patent US20230227505A1, “IDENTIFICATION AND APPLICATION OF ALV-J MHC-B2 R[…] PEPTIDE” (South China Agricultural University, priority 2022, published 2023).

This test has as its system spleen lymphocytes of B2-haplotype chicken infected with ALV-J. As to the kind of experiment: IFN-γ ELISpot assay detecting immunogenicity of candidate peptides. The test is classed as cell-based. As to conditions: peptide 10 μg/mL as stimulant, spleen lymphocytes of B2-haplotype chicken infected for 28 d; for IFN-γ ELISpot spots generated compared with the negative control group: 24-48 h; for IFN-γ ELISpot spots, significance versus negative control (immunogenic T cell epitope): P<0.05, three independent replications. On the procedure:
The B2-haplotype chicken infected for 28 d (day) in 2.1 is taken, and the spleen lymphocytes of the chicken are isolated according to the kit instructions of the chicken organ tissue mononuclear cell isolation solution, and an ELISpot assay is performed to detect the immunogenicity of candidate peptide epitopes. The specific steps are as follows:
(1) PVDF 96-well plate activation: 15 μL 35% ethanol is added to each well for reaction for less than 1 min, and then the wells are washed five times with sterile water.
(2) Antibody coating: the anti-chicken IFN-γ is diluted to 15 μg/mL, and 100 μL of that is added to each well, and the mixture is incubated at 4° C. overnight.
(3) Blocking: the coating solution is discarded, followed by washing 5 times with DPBS, and the plate is dried on the sterilized absorbent paper. RMPI 1640 medium containing 10% FBS is added to PVDF 96-well plate at 200 μL/well and the reaction is blocked at room temperature for 30 min.
(4) Stimulation: the blocking solution is discarded and 100 μL of prepared lymphocyte suspension at the concentration of 5*10^6 cells/mL is added to each well. At the same time, 50 μL diluted antigenic peptide is added to the experimental group at the final concentration of 10 μg/mL, PMA at the final concentration of 10 μg/mL is added to the positive control group, and no irritant is added to the negative control group. After all the samples are added, PVDF 96-well plate is placed in CO2 incubator at 37° C. for 24-48 h.
(5) Incubation of secondary antibody: after the culture, the cells are shaken off and the plate is washed five times with DPBS. Then 100 μL biotinylated secondary antibody with a concentration of 1 μg/mL is added to each well and the plate is incubated for 2 h at room temperature.
(6) HRP incubation: the secondary antibody solution is discarded and washed with DPBS for 5 times. Then 100 μL streptavidin-labeled HRP is added to the well and incubated at room temperature for 1 h.
(7) Color development: the HRP incubation solution is discarded and the plate is washed with DPBS for 5 times. Then 100 μL TMB color-developing substrate is added to each well followed by incubation at room temperature or 37° C. for 15-30 min. When obvious spots appeared in the positive control group, the color-developing solution could be discarded. the color development is stopped with pure water and the plate is read after air drying.

On to TVDTASSAI (ALV-J-52), for which the “IFN-γ ELISpot spots generated compared with the negative control group” value is “could generate spots” and the “IFN-γ ELISpot spots, significance versus negative control (immunogenic T cell epitope)” value is recorded as “significantly produce more spots”.

As to FVDFANRLI (ALV-J-59), the “IFN-γ ELISpot spots generated compared with the negative control group” value is “could generate spots” and the “IFN-γ ELISpot spots, significance versus negative control (immunogenic T cell epitope)” value is “significantly produce more spots”.

Regarding SALQAFREV (ALV-J-61), the “IFN-γ ELISpot spots generated compared with the negative control group” value was “could generate spots” and the “IFN-γ ELISpot spots, significance versus negative control (immunogenic T cell epitope)” value was “significantly produce more spots”.
